From PubChem BioAssay AID256 (DTP/NCI, 2004)
“And” between values parts separate entries of the source, which are not always exact repeats. Equal entries are not always repeated. Inconclusive results and toxic doses are left out.

Test system: CD2F1 mice, L1210 leukemia ip, survival T/C
Test: NCI In Vivo Anticancer Drug Screen. Data for tumor model L1210 Leukemia (intraperitoneal) in CD2F1 (CDF1) mice
Conditions: higher = longer survival
Description: The antitumor activity of compounds was measured in mice bearing transplantable tumors. Survival or tumor size were measured and the results are expressed as the measurement made in the treated group (T) divided by the measurement made in the vehicle treated control group (C). The tumor model used in this assay is L1210 Leukemia (intraperitoneal) in CD2F1 (CDF1) mice

[1] = endpoint: mean survival time, dose: 50.0 mg/kg/injection, schedule: Q01DX009 (ip), vehicle: saline with Tween-80
[2] = endpoint: mean survival time, dose: 100.0 mg/kg/injection, schedule: Q01DX009 (ip), vehicle: saline with Tween-80
[3] = endpoint: mean survival time, dose: 100.0 mg/kg/injection, schedule: Q04DX003 (ip), vehicle: saline with Tween-80
[4] = endpoint: mean survival time, dose: 200.0 mg/kg/injection, schedule: Q04DX003 (ip), vehicle: saline with Tween-80
[5] = endpoint: mean survival time, dose: 400.0 mg/kg/injection, schedule: Q04DX003 (ip), vehicle: saline with Tween-80
[6] = endpoint: mean survival time, dose: 100.0 mg/kg/injection, schedule: Q01DX001 (ip), vehicle: saline with Tween-80
[7] = endpoint: mean survival time, dose: 200.0 mg/kg/injection, schedule: Q01DX001 (ip), vehicle: saline with Tween-80
[8] = endpoint: mean survival time, dose: 200.0 mg/kg/injection, schedule: Q01DX009 (ip), vehicle: saline with Tween-80
[9] = endpoint: mean survival time, dose: 400.0 mg/kg/injection, schedule: Q01DX001 (ip), vehicle: saline with Tween-80
[10] = endpoint: mean survival time, dose: 400.0 mg/kg/injection, schedule: Q01DX009 (ip), vehicle: saline with Tween-80
[11] = endpoint: mean survival time, dose: 50.0 mg/kg/injection, schedule: Q01DX009 (ip), vehicle: Klucel (hydroxypropylcellulose) (HPC)
[12] = endpoint: mean survival time, dose: 100.0 mg/kg/injection, schedule: Q01DX009 (ip), vehicle: Klucel (hydroxypropylcellulose) (HPC)
[13] = endpoint: mean survival time, dose: 200.0 mg/kg/injection, schedule: Q01DX009 (ip), vehicle: Klucel (hydroxypropylcellulose) (HPC)
[14] = endpoint: mean survival time, dose: 400.0 mg/kg/injection, schedule: Q01DX009 (ip), vehicle: Klucel (hydroxypropylcellulose) (HPC)

## Nc1ccc(-n2nc3ccc4ccccc4c3n2)cc1
endpoint: mean survival time, dose: 25.0 mg/kg/injection, schedule: Q04DX002 (ip), vehicle: saline with Tween-80
  T/C: 98 % of control
endpoint: mean survival time, dose: 50.0 mg/kg/injection, schedule: Q04DX002 (ip), vehicle: saline with Tween-80
  T/C: 98 % of control
endpoint: mean survival time, dose: 100.0 mg/kg/injection, schedule: Q04DX002 (ip), vehicle: saline with Tween-80
  T/C: 103 % of control

## Cc1ccc(Cl)cc1NC(=O)CCl
endpoint: mean survival time, dose: 25.0 mg/kg/injection, schedule: Q01DX009 (ip), vehicle: saline with Tween-80
  T/C: 94 % of control
[1]
  T/C: 94 % of control
[2]
  T/C: 89 % of control and 96 % of control
[3]
  T/C: 101 % of control
[4]
  T/C: 95 % of control
[5]
  T/C: 97 % of control

## O=C1N(C2CCCCC2)CC2C(c3ccccc3)N(c3ccccc3)NC12O (stereo unspecified)
[6]
  T/C: 92 % of control
[2]
  T/C: 97 % of control
[7]
  T/C: 91 % of control
[8]
  T/C: 98 % of control
[9]
  T/C: 88 % of control
[10]
  T/C: 108 % of control

## CCCCNCCC(=O)c1ccc(Cl)cc1
endpoint: mean survival time, dose: 25.0 mg/kg/injection, schedule: Q04DX003 (ip), vehicle: saline with Tween-80
  T/C: 98 % of control
endpoint: mean survival time, dose: 50.0 mg/kg/injection, schedule: Q04DX003 (ip), vehicle: saline with Tween-80
  T/C: 98 % of control

## CCOC1=C(C)C(=O)C1C (stereo unspecified)
endpoint: mean survival time, dose: 100.0 mg/kg/injection, schedule: Q04DX003 (ip), vehicle: saline
  T/C: 100 % of control
endpoint: mean survival time, dose: 200.0 mg/kg/injection, schedule: Q04DX003 (ip), vehicle: saline
  T/C: 94 % of control
endpoint: mean survival time, dose: 400.0 mg/kg/injection, schedule: Q04DX003 (ip), vehicle: saline
  T/C: 100 % of control

## CC(CCl)C(C#N)(c1ccccc1)c1ccccc1 (stereo unspecified)
[1]
  T/C: 92 % of control
[2]
  T/C: 95 % of control
[3]
  T/C: 101 % of control
[8]
  T/C: 95 % of control
[4]
  T/C: 101 % of control

## CC(=O)COc1ccccc1[N+](=O)[O-]
[6]
  T/C: 108 % of control
[7]
  T/C: 104 % of control
[9]
  T/C: 112 % of control

## CN(C)c1ccc(-c2nc3ccccc3s2)cc1
[11]
  T/C: 106 % of control
[12]
  T/C: 96 % of control
[13]
  T/C: 98 % of control

## CCCCCCCCCCC(=O)OCC1OC2C(Oc3nc(=N)ccn32)C1OC(=O)CCCCCCCCCC (stereo unspecified)
endpoint: mean survival time, dose: 12.5 mg/kg/injection, schedule: Q01DX009 (ip), vehicle: water
  T/C: 156 % of control
endpoint: mean survival time, dose: 25.0 mg/kg/injection, schedule: Q01DX009 (ip), vehicle: water
  T/C: 202 % of control
endpoint: mean survival time, dose: 50.0 mg/kg/injection, schedule: Q01DX009 (ip), vehicle: water
  T/C: 242 % of control
endpoint: mean survival time, dose: 100.0 mg/kg/injection, schedule: Q01DX009 (ip), vehicle: water
  T/C: 118 % of control

## O=C(N/N=C/c1ccccc1)c1cc([N+](=O)[O-])cc([N+](=O)[O-])c1
[12]
  T/C: 94 % of control
[13]
  T/C: 100 % of control
[14]
  T/C: 98 % of control

## O=C(c1ccccc1)C(C(O)CCl)C(O)(C(F)(F)F)C(F)(F)F (stereo unspecified)
[2]
  T/C: 94 % of control
[8]
  T/C: 94 % of control

## O=c1[nH]c(=O)n(C2CC(O)C(CO)O2)cc1Br (stereo unspecified)
endpoint: mean survival time, dose: 25.0 mg/kg/injection, schedule: Q01DX009 (ip), vehicle: Klucel (hydroxypropylcellulose) (HPC)
  T/C: 103 % of control
[11]
  T/C: 123 % of control
[12]
  T/C: 120 % of control
[13]
  T/C: 112 % of control
[14]
  T/C: 112 % of control
endpoint: mean survival time, dose: 800.0 mg/kg/injection, schedule: Q01DX009 (ip), vehicle: Klucel (hydroxypropylcellulose) (HPC)
  T/C: 115 % of control

## Cc1ccc(S(=O)(=O)OC2CCC3(C)C(CCC4C3CCC3(C)C(C(C)CCCC(C)C)CCC43)C2)cc1 (stereo unspecified)
[3]
  T/C: 92 % of control
[4]
  T/C: 90 % of control
[5]
  T/C: 89 % of control

## N#Cc1cn(C2OC(CO)C(O)C2O)c2ncnc(N)c12 (stereo unspecified)
endpoint: mean survival time, dose: 0.06 mg/kg/injection, schedule: Q01DX009 (ip), vehicle: saline
  T/C: 106 % of control
endpoint: mean survival time, dose: 0.13 mg/kg/injection, schedule: Q01DX009 (ip), vehicle: saline
  T/C: 110 % of control
endpoint: mean survival time, dose: 0.5 mg/kg/injection, schedule: Q01DX009 (ip), vehicle: saline
  T/C: 111 % of control
endpoint: mean survival time, dose: 1.0 mg/kg/injection, schedule: Q01DX009 (ip), vehicle: saline
  T/C: 95 % of control
endpoint: median survival time, dose: 0.1 mg/kg/injection, schedule: Q06HX024 (ip), vehicle: saline
  T/C: 100 % of control
endpoint: median survival time, dose: 0.2 mg/kg/injection, schedule: Q06HX024 (ip), vehicle: saline
  T/C: 102 % of control
endpoint: median survival time, dose: 0.4 mg/kg/injection, schedule: Q06HX024 (ip), vehicle: saline
  T/C: 109 % of control

## O=C(O)C1=CCCc2ccc(F)cc21
endpoint: median survival time, dose: 50.0 mg/kg/injection, schedule: Q04DX002 (ip), vehicle: saline with Tween-80
  T/C: 100 % of control
endpoint: median survival time, dose: 100.0 mg/kg/injection, schedule: Q04DX002 (ip), vehicle: saline with Tween-80
  T/C: 100 % of control
endpoint: median survival time, dose: 200.0 mg/kg/injection, schedule: Q04DX002 (ip), vehicle: saline with Tween-80
  T/C: 88 % of control
endpoint: median survival time, dose: 400.0 mg/kg/injection, schedule: Q04DX002 (ip), vehicle: saline with Tween-80
  T/C: 111 % of control

## [Cl-].[NH-]CCN(CC[NH-])CCN.[O-][Cl+3]([O-])([O-])O.[O-][Cl+3]([O-])([O-])O.[Pt+2]
endpoint: mean survival time, dose: 12.5 mg/kg/injection, schedule: Q04DX003 (ip), vehicle: saline with Tween-80
  T/C: 97 % of control

## O=C1OC2C(I)C3CC1C2C3 (stereo unspecified)
[3]
  T/C: 96 % of control
[4]
  T/C: 96 % of control

## FC1(F)C(I)=C(I)C1(F)F
endpoint: mean survival time, dose: 75.0 mg/kg/injection, schedule: Q01DX001 (ip), vehicle: saline
  T/C: 97 % of control
endpoint: mean survival time, dose: 150.0 mg/kg/injection, schedule: Q01DX001 (ip), vehicle: saline
  T/C: 103 % of control
endpoint: mean survival time, dose: 300.0 mg/kg/injection, schedule: Q01DX001 (ip), vehicle: saline
  T/C: 105 % of control

## CN=C(NC)c1ccc(NC(=O)/C=C\c2ccc(/C=C/C(=O)Nc3ccc(C(=NC)NC)cc3)cc2)cc1
endpoint: median survival time, dose: 1.5 mg/kg/injection, schedule: Q01DX009 (ip), vehicle: Klucel (hydroxypropylcellulose) (HPC)
  T/C: 112 % of control
endpoint: median survival time, dose: 3.0 mg/kg/injection, schedule: Q01DX009 (ip), vehicle: Klucel (hydroxypropylcellulose) (HPC)
  T/C: 124 % of control
endpoint: median survival time, dose: 3.12 mg/kg/injection, schedule: Q01DX009 (ip), vehicle: Klucel (hydroxypropylcellulose) (HPC)
  T/C: 151 % of control
endpoint: median survival time, dose: 6.0 mg/kg/injection, schedule: Q01DX009 (ip), vehicle: Klucel (hydroxypropylcellulose) (HPC)
  T/C: 181 % of control
endpoint: median survival time, dose: 6.25 mg/kg/injection, schedule: Q01DX009 (ip), vehicle: Klucel (hydroxypropylcellulose) (HPC)
  T/C: 186 % of control
endpoint: median survival time, dose: 12.0 mg/kg/injection, schedule: Q01DX009 (ip), vehicle: Klucel (hydroxypropylcellulose) (HPC)
  T/C: 124 % of control
endpoint: median survival time, dose: 12.5 mg/kg/injection, schedule: Q01DX009 (ip), vehicle: Klucel (hydroxypropylcellulose) (HPC)
  T/C: 124 % of control

## O=C(CBr)c1cccnc1
endpoint: mean survival time, dose: 6.25 mg/kg/injection, schedule: Q04DX003 (ip), vehicle: saline
  T/C: 95 % of control
endpoint: mean survival time, dose: 12.5 mg/kg/injection, schedule: Q04DX003 (ip), vehicle: saline
  T/C: 98 % of control
endpoint: mean survival time, dose: 25.0 mg/kg/injection, schedule: Q04DX003 (ip), vehicle: saline
  T/C: 101 % of control

## O=NN(CCSCCCCl)C(=O)NC1CCCCC1
endpoint: mean survival time, dose: 6.25 mg/kg/injection, schedule: Q01DX001 (ip), vehicle: distilled water + Tween-80
  T/C: 96 % of control
endpoint: mean survival time, dose: 12.5 mg/kg/injection, schedule: Q01DX001 (ip), vehicle: distilled water + Tween-80
  T/C: 96 % of control
endpoint: mean survival time, dose: 25.0 mg/kg/injection, schedule: Q01DX001 (ip), vehicle: distilled water + Tween-80
  T/C: 101 % of control
endpoint: mean survival time, dose: 50.0 mg/kg/injection, schedule: Q01DX001 (ip), vehicle: distilled water + Tween-80
  T/C: 102 % of control
endpoint: mean survival time, dose: 100.0 mg/kg/injection, schedule: Q01DX001 (ip), vehicle: distilled water + Tween-80
  T/C: 101 % of control
endpoint: mean survival time, dose: 200.0 mg/kg/injection, schedule: Q01DX001 (ip), vehicle: distilled water + Tween-80
  T/C: 102 % of control
endpoint: mean survival time, dose: 400.0 mg/kg/injection, schedule: Q01DX001 (ip), vehicle: distilled water + Tween-80
  T/C: 118 % of control

## CC1CC2C3(C1)CC(C(=O)OC3=O)C2(C)C (stereo unspecified)
endpoint: mean survival time, dose: 75.0 mg/kg/injection, schedule: Q01DX001 (ip), vehicle: other
  T/C: 94 % of control
endpoint: mean survival time, dose: 150.0 mg/kg/injection, schedule: Q01DX001 (ip), vehicle: other
  T/C: 92 % of control
endpoint: mean survival time, dose: 300.0 mg/kg/injection, schedule: Q01DX001 (ip), vehicle: other
  T/C: 92 % of control

## O=S(=O)(Oc1ccc(OS(=O)(=O)c2ccccc2)cc1)c1ccccc1
[2]
  T/C: 96 % of control
[8]
  T/C: 98 % of control
[10]
  T/C: 107 % of control

## COc1ccc2c(c1)CCN1C2CCN2CCCC21 (stereo unspecified)
[3]
  T/C: 98 % of control
[4]
  T/C: 90 % of control
